Key:
Format in all cases: in vivo
[1] = test system: Coccinella septempunctata L2 larvae; assay: Larvae treatment Coccinella: kill of beneficial species larvae on Savoy cabbage
Description: (§1) Foliar treatment is carried out using compound (I-5) in a concentration of 75 g of active compound per hectare.
(§2) Drench treatment is carried out using compound (I-5) in a concentration of 10 mg of active compound per plant.
(§3) Foliar treatment with Karate Zeon CS100 as toxic control was carried out in a concentration of 12.5 g of active compound per hectare.
Beneficial species: Coccinella septempunctata L2 larvae Pest: Myzus persicae
Each experiment is carried out in 3 repetitions with in each case 2 pot cages with in each case 5 larvae.
For the experiment, Savoy cabbage plants are grown in pots having a diameter of 14 cm, placed in a breeding cage and infested thoroughly with Myzus persicae. Per experiment, 6 pots having a well-established aphid population are selected and the aphids are rated by estimation of their number. The plants are treated with the active compound solution of the appropriate concentration.
After the spray coating has dried on, a quartz sand layer of a thickness of about 1 cm is applied to the soil in the pot, and the pot cage is put over the plant. In each case 5 Coccinella larvae are then counted out, and in each case 5 specimen are added to the plants in the pot cage.
(§4) For each plant, at the beginning the Myzus persicae number is estimated at the appropriate points in time and the dead, dying and alive larvae are counted separately. All larvae, i.e. all larvae present on the plant and the surface of the quartz sand base, are counted.

[2] = test system: adult Orius laevigatus; assay: Residual test with adult Orius laevigatus on bell-pepper leaves
Description: (§5) Foliar treatment is carried out using compound (I-5) in a concentration of 100 g of active compound per hectare.
(§6) Drench treatment is carried out using compound (I-5) in a concentration of 15 mg of active compound per plant.
(§7) Foliar treatment with Karate Zeon CS100 as toxic control was carried out in a concentration of 12.5 g of active compound per hectare. The active compound in its respective formulation is brought to the required concentration by dilution with water.
(§8) Bell-pepper plants cultivated in a greenhouse are treated with the respective active compound solutions. 1, 8, 16 and 23 days after the application, leaves are plucked from the test plants (5 samples per plot). The individual leaves are then mounted in test cages. 10 adult Orius laevigatus are added to each cage. The test cages are placed under controlled conditions in a climatized chamber. The kill of the insects is determined after 24, 48 and 72 hours of exposure.

[3] = test system: Myzus persicae; assay: Larvae treatment Aphidoletes: infestation by Myzus persicae on Savoy cabbage; conditions: Savoy cabbage with Aphidoletes larvae
Description: as §1, §2, §3
Beneficial species: Aphidoletes aphidimyza larvae Pest: Myzus persicae
Each experiment is carried out in 3 repetitions.
Per plot, 6 Savoy cabbage plants are placed into a planting-out tray and infested with Myzus persicae. About 1 week later, with a well-established Myzus population, the Aphidoletes aphidimyza are added. The application is carried after about 2 weeks once sufficient L2 stage Aphidoletes larvae are present (at least 20 larvae per tray).
In preparation for the application, the plants are reduced to 4 healthy green leaves.
Immediately prior to the application, the Myzus population and the number of Aphidoletes larvae are rated. For the application, all 6 plants of a plot are placed onto the turntable, and the amount of spray liquor for 0.666 m^2 is applied while turning slowly. After the application, the trays are placed into the standard cages.
For each plant, the number of Myzus persicae is estimated at the beginning at the appropriate points in time, and the larvae are counted accurately.

[4] = test system: adult Nesidiocoris tenuis; assay: Residual test with adult Nesidiocoris tenuis on tomato leaves
Description: Foliar treatment is carried out using compound (I-5) in a concentration of 150 g of active compound per hectare.
as §2, §7
as §8, with “Tomato” for “Bell-pepper”, “15” for “16”, “22” for “23”, “Nesidiocoris tenuis” for “Orius laevigatus”

[5] = test system: Macrolophus caliginosus nymphs; assay: Residual test with nymphs of Macrolophus caliginosus on tomato leaves
Description: as §5, §6, §7
as §8, with “Tomato” for “Bell-pepper”, “Macrolophus caliginosus nymphs” for “adult Orius laevigatus”, “insects/larvae” for “insects”

[6] = test system: Episyrphus balteatus larvae; assay: Larvae treatment Episyrphus: kill of beneficial species larvae on Savoy cabbage
Description: as §1, §2, §3
Beneficial species: Episyrphus balteatus larvae Pest: Myzus persicae
Per experiment, 3 repetitions with in each case 2 pot cages with in each case 5 larvae are carried out.
For the experiment, Savoy cabbage plants are grown in pots having a diameter of 14 cm, placed in a breeding cage and infested thoroughly with Myzus persicae.
After the spray coating has dried on, a quartz sand layer of a thickness of about 1 cm is applied to the soil in the pot, and the pot cage is put over the plant. In each case 5 Episyrphus larvae are then counted out, and in each case 5 specimen are added to the plants in the pot cage.
as §4

[7] = 0 days after application, drench 10 mg a.i./plant
[8] = 0 days after application, foliar: (I-5) 75 g a.i./ha, Karate Zeon CS100 12.5 g a.i./ha
[9] = 1 day after application, drench 10 mg a.i./plant
[10] = 1 day after application, foliar: (I-5) 75 g a.i./ha, Karate Zeon CS100 12.5 g a.i./ha
[11] = 3 days after application, drench 10 mg a.i./plant
[12] = 3 days after application, foliar: (I-5) 75 g a.i./ha, Karate Zeon CS100 12.5 g a.i./ha
[13] = 5 days after application, drench 10 mg a.i./plant
[14] = 5 days after application, foliar: (I-5) 75 g a.i./ha, Karate Zeon CS100 12.5 g a.i./ha
[15] = leaves plucked 1 day after application, drench 15 mg a.i./plant
[16] = leaves plucked 1 day after application, foliar: (I-5) 100 g a.i./ha, Karate Zeon CS100 12.5 g a.i./ha
[17] = leaves plucked 8 days after application, drench 15 mg a.i./plant
[18] = leaves plucked 8 days after application, foliar: (I-5) 100 g a.i./ha, Karate Zeon CS100 12.5 g a.i./ha
[19] = leaves plucked 16 days after application, drench 15 mg a.i./plant
[20] = leaves plucked 16 days after application, foliar: (I-5) 100 g a.i./ha, Karate Zeon CS100 12.5 g a.i./ha
[21] = leaves plucked 23 days after application, drench 15 mg a.i./plant
[22] = leaves plucked 23 days after application, foliar: (I-5) 100 g a.i./ha, Karate Zeon CS100 12.5 g a.i./ha

In the case of `O=C1C=C(N(Cc2ccc(Cl)nc2)CC(F)F)CO1` [compound (I-5), 4-{[(6-chloropyrid-3-yl)methyl](2,2-difluoroethyl)amino}furan-2(5H)-one], the “kill of Coccinella septempunctata larvae [% Abbott]” value [1, 7] is reported as 0%, the “kill of Coccinella septempunctata larvae [% Abbott]” value [1, 8] is reported as 0% and the “kill of Coccinella septempunctata larvae [% Abbott]” value [1, 9] is reported as 1.7%. The “kill of Coccinella septempunctata larvae [% Abbott]” value [1, 10] was 3.3%, the “kill of Coccinella septempunctata larvae [% Abbott]” value [1, 11] was 1.7% and the “kill of Coccinella septempunctata larvae [% Abbott]” value [1, 12] was 1.7%. The “kill of Coccinella septempunctata larvae [% Abbott]” value [1, 13] was 3.4%, the “kill of Coccinella septempunctata larvae [% Abbott]” value [1, 14] was 6.9% and the “Activity against adult Orius leavigatus on bell-pepper [% kill calculated according to Schneider-Orelli]” value [2, 15] was 36.3%. The “Activity against adult Orius leavigatus on bell-pepper [% kill calculated according to Schneider-Orelli]” value [2, 16] was 100%, the “Activity against adult Orius leavigatus on bell-pepper [% kill calculated according to Schneider-Orelli]” value [2, 17] was 86.7% and the “Activity against adult Orius leavigatus on bell-pepper [% kill calculated according to Schneider-Orelli]” value [2, 18] was 98.1%. For the same molecule, the “Activity against adult Orius leavigatus on bell-pepper [% kill calculated according to Schneider-Orelli]” value [2, 19] was 72.3%, the “Activity against adult Orius leavigatus on bell-pepper [% kill calculated according to Schneider-Orelli]” value [2, 20] was 100% and the “Activity against adult Orius leavigatus on bell-pepper [% kill calculated according to Schneider-Orelli]” value [2, 21] was 92.1%. For the same molecule, the “Activity against adult Orius leavigatus on bell-pepper [% kill calculated according to Schneider-Orelli]” value [2, 22] was 100%, the “Infestation by Myzus persicae (number per plant)” value (“Infestation … (number per plant)” below) [3, 13] was 19.4 number per plant and the “Infestation … (number per plant)” value [3, 14] was 0 number per plant. The “Infestation … (number per plant)” value ([3]; prior to application (baseline), drench 10 mg a.i./plant) was 367 number per plant, the “Infestation … (number per plant)” value ([3]; prior to application (baseline), foliar: (I-5) 75 g a.i./ha, Karate Zeon CS100 12.5 g a.i./ha) was 344 number per plant and the “Activity against adult Nesidiocoris tenuis on tomato [% kill according to Schneider-Orelli]” value ([4]; leaves plucked 1 day after application, drench 10 mg a.i./plant) was 4.9%. For the same molecule, the “Activity against adult Nesidiocoris tenuis on tomato [% kill according to Schneider-Orelli]” value ([4]; leaves plucked 1 day after application, foliar: (I-5) 150 g a.i./ha, Karate Zeon CS100 12.5 g a.i./ha) was 91.1%, the “Activity against adult Nesidiocoris tenuis on tomato [% kill according to Schneider-Orelli]” value ([4]; leaves plucked 8 days after application, drench 10 mg a.i./plant) was 47.3% and the “Activity against adult Nesidiocoris tenuis on tomato [% kill according to Schneider-Orelli]” value ([4]; leaves plucked 8 days after application, foliar: (I-5) 150 g a.i./ha, Karate Zeon CS100 12.5 g a.i./ha) was 81.3%. The “Activity against adult Nesidiocoris tenuis on tomato [% kill according to Schneider-Orelli]” value ([4]; leaves plucked 15 days after application, drench 10 mg a.i./plant) was 24.4%, the “Activity against adult Nesidiocoris tenuis on tomato [% kill according to Schneider-Orelli]” value ([4]; leaves plucked 15 days after application, foliar: (I-5) 150 g a.i./ha, Karate Zeon CS100 12.5 g a.i./ha) was 32.1% and the “Activity against adult Nesidiocoris tenuis on tomato [% kill according to Schneider-Orelli]” value ([4]; leaves plucked 22 days after application, drench 10 mg a.i./plant) was 66%. For the same molecule, the “Activity against adult Nesidiocoris tenuis on tomato [% kill according to Schneider-Orelli]” value ([4]; leaves plucked 22 days after application, foliar: (I-5) 150 g a.i./ha, Karate Zeon CS100 12.5 g a.i./ha) was 45.8%, the “Activity against nymphs of Macrolophus caliginosus on tomato [% kill according to Schneider-Orelli]” value [5, 15] was 0% and the “Activity against nymphs of Macrolophus caliginosus on tomato [% kill according to Schneider-Orelli]” value [5, 16] was 52.2%. The “Activity against nymphs of Macrolophus caliginosus on tomato [% kill according to Schneider-Orelli]” value [5, 17] was 65.4%, the “Activity against nymphs of Macrolophus caliginosus on tomato [% kill according to Schneider-Orelli]” value [5, 18] was 72.2% and the “Activity against nymphs of Macrolophus caliginosus on tomato [% kill according to Schneider-Orelli]” value [5, 19] was 35.7%. For the same molecule, the “Activity against nymphs of Macrolophus caliginosus on tomato [% kill according to Schneider-Orelli]” value [5, 20] was 21.7%, the “Activity against nymphs of Macrolophus caliginosus on tomato [% kill according to Schneider-Orelli]” value [5, 21] was 23.6% and the “Activity against nymphs of Macrolophus caliginosus on tomato [% kill according to Schneider-Orelli]” value [5, 22] was 41.8%. For the same molecule, the “kill of Episyrphus balteatus larvae [% Abbott]” value [6, 7] was 0%, the “kill of Episyrphus balteatus larvae [% Abbott]” value [6, 8] was 0% and the “kill of Episyrphus balteatus larvae [% Abbott]” value [6, 9] was 10.3%. The “kill of Episyrphus balteatus larvae [% Abbott]” value [6, 10] was 6.1%, the “kill of Episyrphus balteatus larvae [% Abbott]” value [6, 11] was 10.3% and the “kill of Episyrphus balteatus larvae [% Abbott]” value [6, 12] was 9%. The “kill of Episyrphus balteatus larvae [% Abbott]” value [6, 13] was 0% and the “kill of Episyrphus balteatus larvae [% Abbott]” value [6, 14] was 0%.

From US20110300110A1, “ENAMINOCARBONYL COMPOUND/BENEFICIAL ORGANISM COMBINATIONS” (BAYER CROPSCIENCE AG, priority 2008, published 2011)
